Assay results from ChEMBL document CHEMBL1155076, “Synthesis and pharmacological evaluation of novel gamma-aminobutyric acid type B (GABAB) receptor agonists as gastroesophageal reflux inhibitors” (J Med Chem, 2008).

Tests used:
[1] = Displacement of [3H]GABA from GABABreceptor in rat brain synaptic membranes; format: cell membranes, Membrane
[2] = Agonist activity at human recombinant GABABreceptor expressed in CHO-K1 cells assessed as inhibition of intracellular calcium release by FLIPR; format: functional, cell-based
CHO-K1 = assay: Intrinsic activity at human recombinant GABAB receptor expressed in CHO-K1 cells assessed as inhibition of intracellular calcium release by FLIPR relative to GABA; format: cell-based
Canis familiaris = organism: Canis familiaris; assay: Inhibition of transient lower esophageal sphincter relaxation in dog; format: functional; conditions: Canis lupus familiaris
Mus musculus = assay: Toxicity in sc dosed mouse assessed as subcutaneous dose producing 2 degC decrease in body temperature; format: organism-based; conditions: in vivo
[3] = Bioavailability in dog; format: ADME, organism-based, Canis lupus familiaris; conditions: in vivo
[4] = Bioavailability in rat; format: ADME, organism-based; conditions: in vivo

Row | Structure (SMILES) | Ki [1] | EC50 [2] | Intrinsic activity (CHO-K1) | ED50 (Canis familiaris) | Activity (Mus musculus) | bioavailability [3] | bioavailability [4]
1 | CP(=O)(O)CC(=O)CN | 0.2 µM | 0.27 µM | 1 |  |  |  | 
2 | CP(=O)(O)CC(F)CN (stereo not given) | 0.014 µM | 0.023 µM | 1 |  |  |  | 
3 | NC[C@@H](O)C[PH](=O)O | 2.1 µM | 1.1 µM | 1 |  |  |  | 
4 | NC[C@H](O)C[PH](=O)O | 0.05 µM | 0.13 µM | 1 | 7 µmol/kg | > 8000 µmol/kg | 88% | 78%
5 | CP(=O)(O)C[C@H](O)CN | 0.84 µM | 0.6 µM | 1 |  |  |  | 
6 | NCC(O)C[PH](=O)O (stereo not given) | 0.094 µM | 0.22 µM | 1 |  |  |  | 
7 | NC[C@@H](F)C[PH](=O)O [LESOGABERAN] | 0.0051 µM | 0.00864 µM | 1 |  |  |  | 
8 | NCC(CC(=O)O)c1ccc(Cl)cc1 (stereo not given) |  |  | 1 |  |  |  | 
9 | CP(=O)(O)C[C@@H](F)CN | 0.48 µM | 1.7 µM | 1 |  |  |  | 
10 | CP(=O)(O)C[C@@H](O)CN | 0.18 µM | 0.15 µM | 1 | 0.17 µmol/kg | 5.4 µmol/kg |  | 
11 | NCCC[PH](=O)O | 0.015 µM | 0.019 µM | 1 |  |  |  | 
12 | CP(=O)(O)CCCN |  |  | 1 |  |  |  | 
13 | NCC(F)C[PH](=O)O (stereo not given) | 0.01 µM | 0.015 µM | 1 |  |  |  | 
14 | CP(=O)(O)C[C@H](F)CN | 0.0043 µM | 0.014 µM | 1 |  |  |  | 
15 | NC[C@H](F)C[PH](=O)O | 0.07 µM | 0.25 µM | 1 |  |  |  | 
16 | NCC(=O)C[PH](=O)O | 0.048 µM | 0.081 µM | 1 |  |  |  | 
